Measurements published in publication PMC8708875 (Pharmaceutics, 2021).

Assays:
C57BL/6N (WT) mice = format: in vivo, mouse; conditions: WT mice fasted 12 h, glucose 2 g/kg ip at time zero
Protocol: In vivo experiments were conducted with male C57BL/6N (WT) mice 12–16 weeks-old (University of São Paulo Medical School Animal Facility, SP, Brazil). Mice were maintained in individual ventilated cages (Amresco, SP, Brazil), under standardized conditions with an artificial 12 h dark–light cycle, with free access to standard chow (Nuvital Nutrientes S.A., Colombo, PR, Brazil) and drinking water ad libitum. The number of animals used was the minimum necessary to obtain statistically significant results and they were maintained and used in accordance with the guidelines of the National Council for Control of Animal Experiments (CONCEA), following international norms of animal care and maintenance. Thus, we hereby state that all experimental protocols were previously approved by University of São Paulo Ethic committee councils from Biomedical Science Institute (approval number for mice experimentation ICB/USP 22/2017).
WT mice were fasted for 12 h and blood samples were taken before and at 15, 30, 60, 90, and 120 min after the intraperitoneal (ip) injection of 2 g/kg glucose. Glycemia was measured using a glucometer (Accu-Check Performa, ROCHE, São Paulo, Brazil). Peptides were evaluated to affect glucose uptake either after ip or oral (by gavage) administration. After 20 min glucose was administrated (blood glucose levels reached 400 mg/dL), animals received ip or oral administration of either saline, insulin (0.75 IU/kg), or peptide (Ric2 or Ric4; 600 µg/kg). In addition, a group of animals received oral administration of either water or Ric2 or Ric4 (600 µg/kg). Glycemia was measured as indicated following vehicle, insulin, or peptide administration.

[1] = test system: Erk and Akt phosphorylation in epididymal adipose and tibial muscle tissues; assay: Erk and Akt phosphorylation in tissues after ip administration to WT mice; format: in vivo, mouse; conditions: 600 µg/kg ip, tissues collected 30 min after administration
Protocol: Western blotting experiments were performed to evaluate the expression levels of specific proteins. Briefly, cells or tissues as indicated were solubilized by directly adding RIPA buffer (50 mM Tris HCl, 150 mM NaCl, 1.0% v/v, NP-40, 0.5% w/v, sodium deoxycholate, 1.0 mM ethylenediamine tetraacetic acid, EDTA, 0.1% w/v, sodium dodecyl sulphate, SDS, and 0.01% w/v sodium azide, pH of 7.4) containing protease (P8340; Sigma Aldrich, Sao Paulo, Brazil) and phosphatase (P5726, Sigma Aldrich, Sao Paulo, Brazil) inhibitors cocktails, followed by sonication with a micro-tip for 5 s. After 30 min of incubation on ice, samples were centrifuged for 30 min at 12,000× g. Proteins from supernatants (50 µg) were separated by 10% SDS-PAGE and transferred to nitrocellulose membranes for immunoblotting with mouse monoclonal anti-phospho extracellular signal-regulated kinase 1/2 (anti-pErk; Erk 1/2 phosphorylation at Thr202-Tyr204; 1:1000; Cell Signaling, Boston, MA, USA), and rabbit polyclonal anti-total extracellular signal-regulated kinase 1/2 (Erk; anti-total Erk 1/2, 1:1000; Cell Signaling, Boston, MA, USA) antibodies. Blots were also treated with rabbit anti-phospho Akt (S473) (anti-pAkt, 1:1000) and mouse polyclonal anti-total Akt (anti-Akt, 1:1000) (Cell Signaling, Boston, MA, USA) and anti-myogenin (1:1000, Abcam, UK). Protein normalization indicated was performed using rabbit polyclonal anti-glyceraldehyde 3-phosphate dehydrogenase (GAPDH; 1:2000; Proteimax Biotechnology, São Paulo, Brazil) antibodies or anti-β-actin mouse antiserum (1:2000; Sigma Aldrich, Sao Paulo, Brazil). Blots were incubated with horseradish peroxidase-conjugated secondary antibodies for 3 h at room temperature. Western blot bands were visualized with Super-Signal West Pico Chemiluminescent substrate (Thermo Scientific) using the ChemiDoc™ MP Imaging System (BioRad, Hercules, CA, USA), and quantified using ImageJ 1.49 software. All results are expressed as the means ± standard error of the mean (SEM). The statistical comparisons were performed using Student’s t-test or analysis of variance (ANOVA), followed by ad-hoc Tukey’s test (n = 7). Data were statistically analyzed with GraphPad Prism software (GraphPad Software Inc, San Diego, CA, USA).
Figure 5 Western blotting for ERK and AKT in epididymal adipose and tibial muscle tissues following ip administration of Ric4 to WT mice. Mice were treated ip with vehicle (Control) or Ric4 (600 µg/kg). Tissues were collected 30 min after the Ric4 administration and processed for Western blots as detailed in Section 2.5. The phosphorylation of either ERK or AKT in epididymal adipose tissue (A,B) and tibial muscle tissue (C,D) were analyzed using antibodies anti-pErk (A,C) or anti-pAkt (B,D). […]

**Q.** How did the “blood glucose levels in GTT, ip administration” value (C57BL/6N (WT) mice; peptide 600 µg/kg ip 20 min after glucose) turn out when “LASVSTVLTSKYR [Ric4, intracellular peptide derived from hemoglobin alpha subunit, last 13 C-terminal amino acids]” was run?
**A.** The value was “rapidly induced a decrease in blood glucose levels”.

**Q.** What about the “blood glucose levels in GTT, oral administration” value (C57BL/6N (WT) mice; peptide 600 µg/kg orally by gavage) of the same sequence?
**A.** Its value is “decreased blood glucose levels”.

**Q.** What about the “Akt phosphorylation in epididymal adipose tissue” value [1] of the same sequence?
**A.** The value was “increased”.

**Q.** And the “Akt phosphorylation in tibial skeletal muscle” value [1]?
**A.** Its value is “not Akt phosphorylation”.

**Q.** What about the “Erk phosphorylation in epididymal adipose tissue” value [1] of the same sequence?
**A.** The value was “increased”.

**Q.** And the “Erk phosphorylation in tibial skeletal muscle” value [1]?
**A.** The value was “increased”.
